Test results: patent publication US20160108049A1 (TAKEDA Gmbh, priority 2011, published 2016)

Experiments:
PDE4B1 = target: T1, PDE4B1 (Homo sapiens, UniProt Q07343); test: Inhibition of PDE4 activity (PDE4B1, SPA assay); assay type: biochemical; details: recombinant PDE4B1, 0.5 μM cAMP; read-out: PDE4B1 Inhibitory values measured as -logIC50 (converted)
T1 construct: made in house; host or cells: SF21 insect cells (baculovirus; virus made in SF9 cells, pCR-Bac vector)
Procedure: Method for Measuring Inhibition of PDE4 Activity
The PDE4B1 (GB no. L20966) was a gift of Prof. M. Conti (Stanford University, USA). It was amplified from the original plasmid (pCMV5) via PCR with primers Rb18 (5′-[…]-3′) and Rb10 (5′-[…]-3′) and cloned into the pCR-Bac vector (Invitrogen, Groningen, NL).
The recombinant baculovirus was prepared by means of homologous recombination in SF9 insect cells. The expression plasmids were cotransfected with Baculo-Gold DNA (Pharmingen, Hamburg) using a standard protocol (Pharmingen, Hamburg). Wt virus-free recombinant virus supernatants were selected using plaque assay methods. After that, high-titre virus supernatants were prepared by amplifying 3 times. PDE4B1 was expressed in SF21 cells by infecting 2×10^6 cells/ml with an MOI (multiplicity of infection) between 1 and 10 in the serum-free SF900 medium (GIBCO Life Technologies, Karlsruhe, Germany) The cells were cultured at 28° C. for 48-72 hours, after which they were pelleted for 5-10 min at 1000×g and 4° C.
The SF21 insect cells were resuspended, at a concentration of approx. 10^7 cells/ml, in ice-cold (4° C.) homogenization buffer (20 mM Tris, pH 8.2, containing the following additions: 140 mM NaCl, 3.8 mM KCl, 1 mM EGTA, 1 mM MgCl2, 10 mM β-mercaptoethanol, 2 mM benzamidine, 0.4 mM Pefablock, 10 μM leupeptin, 10 μM pepstatin A, 5 μM trypsin inhibitor) and disrupted by ultrasonication. The homogenate was then centrifuged for 10 min at 1000×g and the supernatant was stored at −80° C. until subsequent use (see below). The protein content was determined by the Bradford method (BioRad, Munich) using BSA (Bovine serum albumin) as the standard.
PDE4B1 activities were measured in a 96-well platform using SPA (scintillation proximity assay) yttrium silicate beads (RPNQ1050 from GE Healthcare). In a first step the PDE activity operated hydrolysis of either [^3H] cAMP (substrate) into […]. In a second step substrate and product were distinguished following addition of SPA yttrium silicate beads. […] Close proximity of bound [^3H] […] The test volume was 100 μl and finally contained 20 mM Tris buffer (pH 7.4), 0.1 mg/ml of BSA, 5 mM Mg^2+, 0.5 μM cAMP (including about 50,000 cpm of [3H]cAMP) as substrate, 1 μl of the respective substance dilution in DMSO and sufficient recombinant PDE (1000×g supernatant, see above) to ensure that 10-20% of the cAMP was converted under the said experimental conditions. […] After a preincubation of 5 min at 37° C., the reaction was commenced by adding the substrate (cAMP) and the assays were incubated for a further 15 min. Reactions were terminated by adding SPA beads (50 μl). In agreement with the manufacturer's instructions, the SPA beads had previously been resuspended in water, but were then diluted 1:3 (v/v) in water. This diluted solution further contained 3 mM IBMX (isobutylmethylxanthine) to ensure a complete block of PDE activity. Once the beads were sedimented (>30 min), the MTP's (micro titerplate) were analyzed in commercially available […]. The corresponding IC50 values of the compounds for inhibition of PDE4B1 activity were determined from the concentration-effect curves by means of non-linear regression.
(§1) The numbers of the compounds correspond to the numbers of the examples.

human PDE5 = target: T2, human PDE5 (Homo sapiens, UniProt O76074); test: Inhibition of PDE5 activity (platelet lysate, SPA assay); assay type: biochemical; details: 0.5 μM cGMP, read-out: PDE5 Inhibitory values measured as -logIC50 (converted)
T2 construct: from tissue; host or cells: human platelets from fresh donor blood (platelet lysate)
Procedure: Method for Measuring Inhibition of PDE5 Activity
As a source for human PDE5, platelets were used. For that purpose, 150 ml fresh blood from human donors anticoagulated with citrate [final concentration 0.3% (w/v)] was centrifuged at 200 g for 10 min to obtain the so-called platelet-rich-plasma (PRP) as a supernatant. […] After centrifugation (1,400 g, 10 min) the cell pellet was resuspended in 3 ml homogenization buffer (NaCl 140 mM, KCl 3.8 mM, EGTA (ethylene glycol tetraacetic acid) 1 mM, MgCl2 1 mM, Tris-HCl 20 mM, beta-mercaptoethanol 1 mM, pH 8.2) plus protease-inhibitor mix resulting in final concentrations of 0.5 mM Pefablock (Roche), 10 μM Leupeptin, 5 μM Trypsine inhibitor, 2 mM Benzamidin and 10 μM Pepstatin A. The suspension was sonicated and thereafter centrifuged for 15 min at 10,000 g. The resulting supernatant (platelet lysate) was used for enzymatic assays.
PDE5 activities were measured in a 96-well platform using SPA (scintillation proximity assay) yttrium silicate beads (RPNQ1050 from GE Healthcare). In a first step the PDE activity operated hydrolysis of either [^3H] cGMP (substrate) into [^3H] 5′GMP. In a second step substrate and product were distinguished following addition of SPA yttrium silicate beads. Indeed, in the presence of zinc sulphate the linear [^3H] […] Close proximity of bound [^3H] […] The test volume was 100 μl and contained 20 mM Tris buffer (pH 7.4), 0.1 mg of BSA (bovine serum albumin)/ml, 5 mM Mg^2+, 1 μM motapizone (PDE3 Inhibitor), 10 nM PDE2 inhibitor 2-(3,4-dimethoxybenzyl)-7-[(1R,2R)-2-hydroxy-1-(2-phenylethyl)propyl]-5-methylimidazo[5,1-f][1,2,4]triazin-4(3H)-one, 0.5 μM cGMP (cyclic guanosine monophosphate) (including about 50,000 cpm of [3H]cGMP as a tracer) (substrate), 1 μl of the respective compound dilution in dimethylsulfoxide (DMSO) and sufficient PDE5-containing platelet lysat (10,000×g supernatant, see above) to ensure that 10-20% of the cGMP was converted under the said experimental conditions. […] After a preincubation of 5 min at 37° C., the reaction was commenced by adding the substrate (cGMP) and the assay was incubated for a further 15 min. The reaction was terminated by adding SPA beads (50 μl). In agreement with the manufacturer's instructions, the SPA beads had previously been resuspended in water, but were then diluted 1:3 (v/v) in water. This diluted solution also contained 3 mM 8-methoxymethyl-3-isobutyl-1-methylxanthine (IBMX) to ensure a complete block of PDE activity. Once the beads were sedimented (>30 min), the MTP's were analyzed in commercially available luminescence detection devices. The corresponding IC50 values of the compounds for inhibition of PDE activity were determined from the concentration-effect curves by means of non-linear regression.
as §1

T1 sequence (Q07343 whole entry): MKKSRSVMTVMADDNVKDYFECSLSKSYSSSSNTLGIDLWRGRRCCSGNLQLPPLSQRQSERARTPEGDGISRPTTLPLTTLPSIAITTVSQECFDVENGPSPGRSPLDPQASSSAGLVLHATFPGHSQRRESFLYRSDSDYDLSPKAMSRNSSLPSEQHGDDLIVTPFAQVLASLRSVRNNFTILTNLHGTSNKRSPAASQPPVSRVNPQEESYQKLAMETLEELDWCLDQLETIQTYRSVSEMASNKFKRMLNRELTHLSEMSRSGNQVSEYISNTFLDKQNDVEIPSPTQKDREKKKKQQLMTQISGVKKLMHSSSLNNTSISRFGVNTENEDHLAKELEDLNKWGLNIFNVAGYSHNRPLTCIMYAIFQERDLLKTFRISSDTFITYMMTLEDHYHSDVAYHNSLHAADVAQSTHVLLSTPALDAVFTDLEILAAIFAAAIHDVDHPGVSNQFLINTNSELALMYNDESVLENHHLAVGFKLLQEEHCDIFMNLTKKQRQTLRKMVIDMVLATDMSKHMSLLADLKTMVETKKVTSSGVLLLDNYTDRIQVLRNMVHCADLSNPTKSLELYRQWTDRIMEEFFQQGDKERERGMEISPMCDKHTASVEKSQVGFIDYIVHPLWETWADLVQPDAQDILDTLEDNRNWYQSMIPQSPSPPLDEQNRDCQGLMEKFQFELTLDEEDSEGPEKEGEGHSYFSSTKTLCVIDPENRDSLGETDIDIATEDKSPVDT

IC50 (PDE4B1) [nM]	IC50 (human PDE5) [nM]	Compound
< 1	1 to 10	COc1ccc(C2=NN(C3CCN(C(=O)[C@H](Cc4ccc(O)cc4)NC(=O)c4c[nH]c5c(-c6c(OCC7CC7)ccc7c6OCO7)ncnc45)CC3)C(=O)[C@@H]3CCCC[C@H]23)cc1OC [Example 53, 4-[5-(cyclopropylmethoxy)-1,3-benzodioxol-4-yl]-N-[(2S)-1-{4-[(4aS,8aR)-4-(3,4-dimethoxyphenyl)-1-oxo-4a,5,6,7,8,8a-hexahydrophthalazin-2(1H)-yl]piperidin-1-yl}-3-(4-hydroxyphenyl)-1-oxopropan-2-yl]-5H-pyrrolo[3,2-d]pyrimidine-7-carboxamide]
1 to 10	< 1	COc1ccc(C2=NN(C3CCN(C(=O)[C@@H](CCC(=O)N(C)C)NC(=O)c4c(C)[nH]c5c(-c6c(OCC7CC7)ccc7c6OCO7)ncnc45)CC3)C(=O)C(C)(C)C2)cc1OC [Example 118, 4-[5-(cyclopropylmethoxy)-1,3-benzodioxol-4-yl]-N-[(2R)-1-{4-[3-(3,4-dimethoxyphenyl)-5,5-dimethyl-6-oxo-5,6-dihydropyridazin-1(4H)-yl]piperidin-1-yl}-5-(dimethylamino)-1,5-dioxopentan-2-yl]-6-methyl-5H-pyrrolo[3,2-d]pyrimidine-7-carboxamide]
1 to 10	1 to 10	COc1ccc(C2=NN(C3CCN(C(=O)[C@H](Cc4cccc(C)c4)NC(=O)c4c(C)[nH]c5c(-c6c(OCC7CC7)ccc7c6OCO7)ncnc45)CC3)C(=O)[C@@H]3CCCC[C@H]23)cc1OC [Example 4, 4-[5-(cyclopropylmethoxy)-1,3-benzodioxol-4-yl]-N-[(2S)-1-{4-[(4aS,8aR)-4-(3,4-dimethoxyphenyl)-1-oxo-4a,5,6,7,8,8a-hexahydrophthalazin-2(1H)-yl]piperidin-1-yl}-3-(3-methylphenyl)-1-oxopropan-2-yl]-6-methyl-5H-pyrrolo[3,2-d]pyrimidine-7-carboxamide]
< 1	1 to 10	COc1ccc(C2=NN(C3CCN(C(=O)[C@@H](Cc4ccc(C(N)=O)cc4)NC(=O)c4c(C)[nH]c5c(-c6c(OCC7CC7)ccc7c6OCO7)ncnc45)CC3)C(=O)[C@@H]3CCCC[C@H]23)cc1OC [Example 11, N-[(2R)-3-(4-carbamoylphenyl)-1-{4-[(4aS,8aR)-4-(3,4-dimethoxyphenyl)-1-oxo-4a,5,6,7,8,8a-hexahydrophthalazin-2(1H)-yl]piperidin-1-yl}-1-oxopropan-2-yl]-4-[5-(cyclopropylmethoxy)-1,3-benzodioxol-4-yl]-6-methyl-5H-pyrrolo[3,2-d]pyrimidine-7-carboxamide]
–	< 1	COc1ccc(C2=NN(C3CCN(C(=O)[C@H](Cc4cscn4)NC(=O)c4c(C)[nH]c5c(-c6c(OCC7CC7)ccc7c6OCO7)ncnc45)CC3)C(=O)[C@@H]3CCCC[C@H]23)cc1OC [Example 87, 4-[5-(cyclopropylmethoxy)-1,3-benzodioxol-4-yl]-N-[(2S)-1-{4-[(4aS,8aR)-4-(3,4-dimethoxyphenyl)-1-oxo-4a,5,6,7,8,8a-hexahydrophthalazin-2(1H)-yl]piperidin-1-yl}-1-oxo-3-(1,3-thiazol-4-yl)propan-2-yl]-6-methyl-5H-pyrrolo[3,2-d]pyrimidine-7-carboxamide]

Further lines, the molecule ahead of its results:

Compound	IC50 (PDE4B1) [nM]	IC50 (human PDE5) [nM]
COc1ccc(C2=NN(C3CCN(C(=O)[C@H](Cc4c[nH]cn4)NC(=O)c4c[nH]c5c(-c6c(OCC7CC7)ccc7c6OCO7)ncnc45)CC3)C(=O)[C@@H]3CCCC[C@H]23)cc1OC [Example 90, 4-[5-(cyclopropylmethoxy)-1,3-benzodioxol-4-yl]-N-[(2S)-1-{4-[(4aS,8aR)-4-(3,4-dimethoxyphenyl)-1-oxo-4a,5,6,7,8,8a-hexahydrophthalazin-2(1H)-yl]piperidin-1-yl}-3-(1H-imidazol-4-yl)-1-oxopropan-2-yl]-5H-pyrrolo[3,2-d]pyrimidine-7-carboxamide]	< 1	< 1
COc1ccc(C2=NN(C3CCN(C(=O)[C@H](NC(=O)c4c[nH]c5c(-c6c(OCC7CC7)ccc7c6OCO7)ncnc45)C(C)(C)C)CC3)C(=O)[C@@H]3CCCC[C@H]23)cc1OC [Example 121, 4-[5-(cyclopropylmethoxy)-1,3-benzodioxol-4-yl]-N-[(2R)-1-{4-[(4aS,8aR)-4-(3,4-dimethoxyphenyl)-1-oxo-4a,5,6,7,8,8a-hexahydrophthalazin-2(1H)-yl]piperidin-1-yl}-3,3-dimethyl-1-oxobutan-2-yl]-5H-pyrrolo[3,2-d]pyrimidine-7-carboxamide]	1 to 10	1 to 10
COc1ccc(C2=NN(C3CCN(C(=O)C[C@@H](Cc4ccccc4)NC(=O)c4c[nH]c5c(-c6c(OCC7CC7)ccc7c6OCO7)ncnc45)CC3)C(=O)[C@@H]3CCCC[C@H]23)cc1OC [Example 77, 4-[5-(cyclopropylmethoxy)-1,3-benzodioxol-4-yl]-N-[(2R)-4-{4-[(4aS,8aR)-4-(3,4-dimethoxyphenyl)-1-oxo-4a,5,6,7,8,8a-hexahydrophthalazin-2(1H)-yl]piperidin-1-yl}-4-oxo-1-phenylbutan-2-yl]-5H-pyrrolo[3,2-d]pyrimidine-7-carboxamide]	1 to 10	1 to 10
COc1ccc(C2=NN(C3CCN(C(=O)[C@@H](CCC(=O)NC(C)C)NC(=O)c4c[nH]c5c(-c6c(OCC7CC7)ccc7c6OCO7)ncnc45)CC3)C(=O)[C@@H]3CCCC[C@H]23)cc1OC [Example 107, 4-[5-(cyclopropylmethoxy)-1,3-benzodioxol-4-yl]-N-[(2R)-1-{4-[(4aS,8aR)-4-(3,4-dimethoxyphenyl)-1-oxo-4a,5,6,7,8,8a-hexahydrophthalazin-2(1H)-yl]piperidin-1-yl}-1,5-dioxo-5-(propan-2-ylamino)pentan-2-yl]-5H-pyrrolo[3,2-d]pyrimidine-7-carboxamide]	1 to 10	1 to 10
